molecular target: GST-Bc1-2 (Homo sapiens, UniProt P10415); assay: Time Resolved-Fluorescence Resonance Energy Transfer (TR-FRET) Bcl-2 binding assay with F-Bak peptide probe; conditions: GST-Bcl-2 1 nM, F-Bak probe 100 nM, Tb-anti-GST 1 nM; '<' = below limit of detection; read-out: TR-FRET Bcl-2 Binding Ki
Sequence (P10415 whole entry): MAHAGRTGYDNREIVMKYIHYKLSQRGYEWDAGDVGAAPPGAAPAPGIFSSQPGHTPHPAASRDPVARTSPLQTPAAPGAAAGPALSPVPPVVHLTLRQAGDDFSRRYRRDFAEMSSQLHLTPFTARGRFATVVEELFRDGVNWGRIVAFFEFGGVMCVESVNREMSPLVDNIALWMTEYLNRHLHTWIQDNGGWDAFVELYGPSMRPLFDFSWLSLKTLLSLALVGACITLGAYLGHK

SMILES	Ki [nM]
CC1(C)CC(c2ccc(Cl)cc2)=C(CN2CCN(c3ccc(C(=O)NS(=O)(=O)c4ccc(NCC5COCCO5)c([N+](=O)[O-])c4)c(Oc4cnc5[nH]ccc5c4)c3)CC2)CO1 (centres unmarked) [Example 31, 4-(4-{[4-(4-chlorophenyl)-6,6-dimethyl-5,6-dihydro-2H-pyran-3-yl]methyl}piperazin-1-yl)-N-({4-[(1,4-dioxan-2-ylmethyl)amino]-3-nitrophenyl}sulfonyl)-2-(1H-pyrrolo[2,3-b]pyridin-5-yloxy)benzamide]	< 0.01
CO[C@H]1CC[C@H](CNc2ccc(S(=O)(=O)NC(=O)c3ccc(N4CCN(CC5=C(c6ccc(Cl)cc6)CC(C)(C)CC5)CC4)cc3Oc3cnc4[nH]ccc4c3)cc2[N+](=O)[O-])CC1 [Example 34, Trans-4-(4-{[2-(4-chlorophenyl)-4,4-dimethylcyclohex-1-en-1-yl]methyl}piperazin-1-yl)-N-[(4-{[(4-methoxycyclohexyl)methyl]amino}-3-nitrophenyl)sulfonyl]-2-(1H-pyrrolo[2,3-b]pyridin-5-yloxy)benzamide]	0.01
O=C(NS(=O)(=O)c1cnc(OCC2(F)CCN(C3COC3)CC2)c(Cl)c1)c1ccc(N2CCN(CC3=C(c4ccc(Cl)cc4)CC4(CC3)CC4)CC2)cc1Oc1cnc2[nH]ccc2c1 [Example 345, N-[(5-chloro-6-{[4-fluoro-1-(oxetan-3-yl)piperidin-4-yl]methoxy}pyridin-3-yl)sulfonyl]-4-(4-{[5-(4-chlorophenyl)spiro[2.5]oct-5-en-6-yl]methyl}piperazin-1-yl)-2-(1H-pyrrolo[2,3-b]pyridin-5-yloxy)benzamide]	< 0.01
CC1(C)CC(c2ccc(Cl)cc2)=C(CN2CCN(c3ccc(C(=O)NS(=O)(=O)c4ccc(NCC5CCOCC5)c([N+](=O)[O-])c4)c(Oc4ccc5[nH]ccc5c4)c3)CC2)CO1 [Example 23, 4-(4-{[4-(4-chlorophenyl)-6,6-dimethyl-5,6-dihydro-2H-pyran-3-yl]methyl}piperazin-1-yl)-2-(1H-indol-5-yloxy)-N-({3-nitro-4-[(tetrahydro-2H-pyran-4-ylmethyl)amino]phenyl}sulfonyl)benzamide]	0.083
CC1(C)CCC(CN2CCN(c3ccc(C(=O)NS(=O)(=O)c4ccc(N[C@@H]5CCN(C6CCOC(C)(C)C6)C5)c([N+](=O)[O-])c4)c(Oc4cnc5[nH]ccc5c4)c3)CC2)=C(c2ccc(Cl)cc2)C1 (stereo partly drawn) [Example 131, 4-(4-{[2-(4-chlorophenyl)-4,4-dimethylcyclohex-1-en-1-yl]methyl}piperazin-1-yl)-N-[(4-{[(3R)-1-(2,2-dimethyltetrahydro-2H-pyran-4-yl)pyrrolidin-3-yl]amino}-3-nitrophenyl)sulfonyl]-2-(1H-pyrrolo[2,3-b]pyridin-5-yloxy)benzamide]	< 0.01
CC1(C)CCC(CN2CCN(c3ccc(C(=O)NS(=O)(=O)c4ccc(N[C@@H]5CCN(C(CF)CF)C5)c([N+](=O)[O-])c4)c(Oc4cnc5[nH]ccc5c4)c3)CC2)=C(c2ccc(Cl)cc2)C1 [Example 207, 4-(4-{[2-(4-chlorophenyl)-4,4-dimethylcyclohex-1-en-1-yl]methyl}piperazin-1-yl)-N-{[4-({(3R)-1-[2-fluoro-1-(fluoromethyl)ethyl]pyrrolidin-3-yl}amino)-3-nitrophenyl]sulfonyl}-2-(1H-pyrrolo[2,3-b]pyridin-5-yloxy)benzamide]	0.03
CN(C)CC(=O)N1CCC(F)(COc2ncc(S(=O)(=O)NC(=O)c3ccc(N4CCN(CC5=C(c6ccc(Cl)cc6)CC(C)(C)CC5)CC4)cc3Oc3cnc4[nH]ccc4c3)cc2Cl)CC1 [Example 270, N-[(5-chloro-6-{[1-(N,N-dimethylglycyl)-4-fluoropiperidin-4-yl]methoxy}pyridin-3-yl)sulfonyl]-4-(4-{[2-(4-chlorophenyl)-4,4-dimethylcyclohex-1-en-1-yl]methyl}piperazin-1-yl)-2-(1H-pyrrolo[2,3-b]pyridin-5-yloxy)benzamide]	< 0.01
CC1(C)CCC(CN2CCN(c3ccc(C(=O)NS(=O)(=O)c4ccc(NCC5CN(CC#N)CCO5)c([N+](=O)[O-])c4)c(Oc4cnc5[nH]ccc5c4)c3)CC2)=C(c2ccc(Cl)cc2)C1 (centres unmarked) [Example 214, 4-(4-{[2-(4-chlorophenyl)-4,4-dimethylcyclohex-1-en-1-yl]methyl}piperazin-1-yl)-N-{[4-({[4-(cyanomethyl)morpholin-2-yl]methyl}amino)-3-nitrophenyl]sulfonyl}-2-(1H-pyrrolo[2,3-b]pyridin-5-yloxy)benzamide]	< 0.01
CC1(C)CCC(CN2CCN(c3ccc(C(=O)NS(=O)(=O)c4ccc(NCC5COCCN5C5CCOC5)c([N+](=O)[O-])c4)c(Oc4cnc5[nH]ccc5c4)c3)CC2)=C(c2ccc(Cl)cc2)C1 (centres unmarked) [Example 171, 4-(4-{[2-(4-chlorophenyl)-4,4-dimethylcyclohex-1-en-1-yl]methyl}piperazin-1-yl)-N-[(3-nitro-4-{[(4-tetrahydrofuran-3-ylmorpholin-3-yl)methyl]amino}phenyl)sulfonyl]-2-(1H-pyrrolo[2,3-b]pyridin-5-yloxy)benzamide]	< 0.01
CN1CCOC(CNc2ccc(S(=O)(=O)NC(=O)c3ccc(N4CCN(CC5=C(c6ccc(Cl)cc6)CC(C)(C)CC5)CC4)cc3Oc3cnc4[nH]ccc4c3)cc2[N+](=O)[O-])C1 (centres unmarked) [Example 134, 4-(4-{[2-(4-chlorophenyl)-4,4-dimethylcyclohex-1-en-1-yl]methyl}piperazin-1-yl)-N-[(4-{[(4-methylmorpholin-2-yl)methyl]amino}-3-nitrophenyl)sulfonyl]-2-(1H-pyrrolo[2,3-b]pyridin-5-yloxy)benzamide]	< 0.01
CC1(C)CCC(CN2CCN(c3ccc(C(=O)NS(=O)(=O)c4ccc(NCC56CC7CC(C5)C(O)C(C7)C6)c([N+](=O)[O-])c4)c(Oc4cnc5[nH]ccc5c4)c3)CC2)=C(c2ccc(Cl)cc2)C1 (centres unmarked) [Example 200, 4-(4-{[2-(4-chlorophenyl)-4,4-dimethylcyclohex-1-en-1-yl]methyl}piperazin-1-yl)-N-{[4-({[(Z)-4-hydroxy-1-adamantyl]methyl}amino)-3-nitrophenyl]sulfonyl}-2-(1H-pyrrolo[2,3-b]pyridin-5-yloxy)benzamide]	< 0.01
CC1(C)CCC(CN2CCN(c3ccc(C(=O)NS(=O)(=O)c4ccc(N[C@H]5CC[C@H](N(CC6CC6)CC6CC6)CC5)c([N+](=O)[O-])c4)c(Oc4cnc5[nH]ccc5c4)c3)CC2)=C(c2ccc(Cl)cc2)C1 [Example 64, Trans-N-{[4-({4-[bis(cyclopropylmethyl)amino]cyclohexyl}amino)-3-nitrophenyl]sulfonyl}-4-(4-{[2-(4-chlorophenyl)-4,4-dimethylcyclohex-1-en-1-yl]methyl}piperazin-1-yl)-2-(1H-pyrrolo[2,3-b]pyridin-5-yloxy)benzamide]	< 0.01
COCCOCCS(=O)(=O)c1ccc(S(=O)(=O)NC(=O)c2ccc(N3CCN(CC4=C(c5ccc(Cl)cc5)CC(C)(C)CC4)CC3)cc2Oc2cnc3[nH]ccc3c2)cc1Cl [Example 58, N-[(3-chloro-4-{[2-(2-methoxyethoxy)ethyl]sulfonyl}phenyl)sulfonyl]-4-(4-{[2-(4-chlorophenyl)-4,4-dimethylcyclohex-1-en-1-yl]methyl}piperazin-1-yl)-2-(1H-pyrrolo[2,3-b]pyridin-5-yloxy)benzamide]	< 0.01
CC1(C)CCC(CN2CCN(c3ccc(C(=O)NS(=O)(=O)c4ccc(NCCCNC5CC5)c([N+](=O)[O-])c4)c(Oc4cnc5[nH]ccc5c4)c3)CC2)=C(c2ccc(Cl)cc2)C1 [Example 291, 4-(4-{[2-(4-chlorophenyl)-4,4-dimethylcyclohex-1-en-1-yl]methyl}piperazin-1-yl)-N-[(4-{[3-(cyclopropylamino)propyl]amino}-3-nitrophenyl)sulfonyl]-2-(1H-pyrrolo[2,3-b]pyridin-5-yloxy)benzamide]	< 0.01
CC1(C)CCC(CN2CCN(c3ccc(C(=O)NS(=O)(=O)c4ccc(NC5CCN(C6CCOC6)CC5)c([N+](=O)[O-])c4)c(Oc4cnc5[nH]ccc5c4)c3)CC2)=C(c2ccc(Cl)cc2)C1 (centres unmarked) [Example 143, 4-(4-{[2-(4-chlorophenyl)-4,4-dimethylcyclohex-1-en-1-yl]methyl}piperazin-1-yl)-N-({3-nitro-4-[(1-tetrahydrofuran-3-ylpiperidin-4-yl)amino]phenyl}sulfonyl)-2-(1H-pyrrolo[2,3-b]pyridin-5-yloxy)benzamide]	< 0.01
CC1(C)CCC(CN2CCN(c3ccc(C(=O)NS(=O)(=O)c4ccc(OCC5(F)CCOCC5)nc4)c(Oc4cnc5[nH]ccc5c4)c3)CC2)=C(c2ccc(Cl)cc2)C1 [Example 251, 4-(4-{[2-(4-chlorophenyl)-4,4-dimethylcyclohex-1-en-1-yl]methyl}piperazin-1-yl)-N-({6-[(4-fluorotetrahydro-2H-pyran-4-yl)methoxy]pyridin-3-yl}sulfonyl)-2-(1H-pyrrolo[2,3-b]pyridin-5-yloxy)benzamide]	0.571
CCN(C)C(=O)N1CCOC(CNc2ncc(S(=O)(=O)NC(=O)c3ccc(N4CCN(CC5=C(c6ccc(Cl)cc6)CC(C)(C)CC5)CC4)cc3Oc3cnc4[nH]ccc4c3)cc2Cl)C1 (centres unmarked) [Example 336, 2-{[(3-chloro-5-{[4-(4-{[2-(4-chlorophenyl)-4,4-dimethylcyclohex-1-en-1-yl]methyl}piperazin-1-yl)-2-(1H-pyrrolo[2,3-b]pyridin-5-yloxy)benzoyl]sulfamoyl}pyridin-2-yl)amino]methyl}-N-ethyl-N-methylmorpholine-4-carboxamide]	0.198
CC(C)N1CCC2(CCC(c3ccc(Cl)cc3)=C(CN3CCN(c4ccc(C(=O)NS(=O)(=O)c5ccc(NCC6CCOCC6)c([N+](=O)[O-])c5)c(Oc5cnc6[nH]ccc6c5)c4)CC3)C2)CC1 [Example 266, 4-(4-{[9-(4-chlorophenyl)-3-isopropyl-3-azaspiro[5.5]undec-8-en-8-yl]methyl}piperazin-1-yl)-N-({3-nitro-4-[(tetrahydro-2H-pyran-4-ylmethyl)amino]phenyl}sulfonyl)-2-(1H-pyrrolo[2,3-b]pyridin-5-yloxy)benzamide]	< 0.01

same assay, conditions: Table 4, selected compounds of Ser. No. 12/631,404; read-out: Bcl-2 FRET Ki

SMILES	Ki [nM]
CC1(C)CC(c2ccc(Cl)cc2)=C(CN2CCN(c3ccc(C(=O)NS(=O)(=O)c4ccc(NCC5CCOCC5)c([N+](=O)[O-])c4)c(Oc4ccc5[nH]ccc5c4)c3)CC2)CO1 [Example 23, 4-(4-{[4-(4-chlorophenyl)-6,6-dimethyl-5,6-dihydro-2H-pyran-3-yl]methyl}piperazin-1-yl)-2-(1H-indol-5-yloxy)-N-({3-nitro-4-[(tetrahydro-2H-pyran-4-ylmethyl)amino]phenyl}sulfonyl)benzamide]	0.083

same assay, conditions: Table 5, direct comparison Z=N vs Z=C analogs; read-out: Bcl-2 FRET ki

SMILES	Ki [nM]
CC1(C)CC(c2ccc(Cl)cc2)=C(CN2CCN(c3ccc(C(=O)NS(=O)(=O)c4ccc(NCC5CCOCC5)c([N+](=O)[O-])c4)c(Oc4ccc5[nH]ccc5c4)c3)CC2)CO1 [Example 23, 4-(4-{[4-(4-chlorophenyl)-6,6-dimethyl-5,6-dihydro-2H-pyran-3-yl]methyl}piperazin-1-yl)-2-(1H-indol-5-yloxy)-N-({3-nitro-4-[(tetrahydro-2H-pyran-4-ylmethyl)amino]phenyl}sulfonyl)benzamide]	0.083
